Measured values as given in article PMC5538626, “Structural and functional analysis of the GABARAP interaction motif (GIM)” (EMBO Reports, 2017).
Entries after “also recorded” stand apart in the source; their conditions may differ. Marks after values point to notes of the source that are not given here. Ends that are not written are not given here.

How the values were obtained:
LC3 and GABARAP families = conditions: cited from earlier work
Description: However, despite the ever‐increasing number of LC3/GABARAP interaction partners identified and perhaps the over‐reliance on LC3B as the main marker of autophagosomes, there is now emerging distinct roles of each LC3 and GABARAP subfamily. For example, both LC3 and GABARAP families are essential for autophagy flux 29; however, LC3s were reported to be involved in phagophore extension and GABARAPs required for autophagosome closure 29. Moreover, GABARAP can activate ULK1 complex to initiate autophagy, irrespective of its conjugation status 28. Indeed, this is also reflected in C. elegans homolog ...

[1] = test system: 6xHis-tagged LC3B and 6xHis-tagged GABARAP; assay: Peptide array, preference GABARAP versus LC3B (absorbance ratio); assay type: binding, human; conditions: absorbance GABARAP/LC3B or LC3B/GABARAP, cut-off 1.5-fold, mean of n = 3, Figs 1A, EV1B and C
Description: A high number of autophagy receptors or adaptor structures have been reported, yet the basis for their selective interaction with individual members of the ATG8 family is not well understood. We speculated whether the LIR motif alone is able to confer selectivity towards a mATG8 subfamily and whether we could derive a subfamily consensus motif from analysis of known mATG8 interaction partners. To address this question, we screened an array of peptides (presented in Fig EV1A and described in Materials and Methods) with the LIR sequences of 30 known and validated autophagy receptors and adaptors (Table 1) against all six human mATG8s for binding (Figs 1A and EV1B and C). In brief, biotinylated peptides were immobilized on streptavidin‐coated 96‐well plates and incubated with His6‐tagged mATG8 proteins. After washing steps, peptide‐bound mATG8 was detected in an ELISA reader using anti‐His antibodies directly conjugated to HRP (horse radish peroxidase; Fig EV1A).
Dashed red line depicts 1.5‐fold change cut‐off.
Due to the wide range of affinities of various LIR sequences towards the LC3/GABARAP proteins, we have normalized our results by dividing values for LC3B interaction by the corresponding value for interaction with GABARAP (Fig 1A, purple bars) and vice versa (Fig 1A, blue bars) to highlight the potential subfamily selectivity of each LIR sequence tested. We classified ratios greater than 1.5‐fold as an indication of a preferential interaction towards that particular LC3 or GABARAP family member. […] Using this information, we generated a sequence plot (Fig 1B) to ascertain whether there were any common sequence features of the GABARAP‐specific interaction proteins. In addition to the 12 sequences identified in this experiment as preferential GABARAP subfamily interactors, we also included known GABARAP interactors that were not included in our screen (ALFY and KBTBD7). […] The previously identified PLEKHM1‐LIR 19 has a high degree of similarity to this sequence. […] However, it is unclear whether this is the case in vivo.
Biotinylated peptides (JPT, Germany) were immobilized on streptavidin‐coated 96‐well plates (#436014; Thermo Scientific) in 100 μl PBS containing 0.1% Tween‐20 (PT) and 1% BSA (PTB) overnight on a shaker at 8°C. After three washing steps with 200 μl PT, 100 μl of 1 μM HIS6‐tagged mATG fusion proteins isolated from E. coli in PTB was incubated with the immobilized peptides for 1 h at 8°C. After three washing steps with 200 μl PT, HIS6‐ATG8 bound to peptides was detected after 1‐h incubation with anti‐HIS‐HRP antibody (JP‐A00612; Genscript; 1:5,000 in 100 μl PTB) with the help of TMB substrate Reagent Set (BD OptEIA; 75 μl). The reaction (blue coloration) was stopped by addition of 60 μl 1 M H3PO4. Samples were analysed on a Synergy H1 ELISA reader from BioTek at 450 nm.

GABARAP = target: T1, GABARAP (Homo sapiens, UniProt O95166); assay: ITC titration of PLEKHM1-LIR peptides into GABARAP; assay type: binding; conditions: for ΔH: VP-ITC, one-site model, 0.4 mM peptide into 0.020 mM protein, 50 mM Na2HPO4, 100 mM NaCl
T1 construct: modified Ub-leader (ubiquitin fusion leader) (N); made in house; host or cells: E. coli NEB T7 Express
Procedure: (§1) The genes for the truncated LC3A^2–121, LC3C^8–125, GABARAP^2–117 and GABARAP‐L1^2–117 proteins were cloned into pET30ΔSE vector between the BamHI and XhoI sites using previously established protocols 38. The chimeric constructs of the PLEKHM1‐LIR attached to the LC3A, GABARAP and GABARAP‐L1 proteins were prepared by inserting the oligonucleotide sequence corresponding to the PLEKHM1‐LIR peptide (P^629[…]^638) and glycine–serine linker into the BamHI site of the pET30ΔSE vector, placing the PLEKHM1‐LIR at the N‐terminal of the mature chimeric protein (similar to 31, 38). For the expression of human LC3 and GABARAP proteins for ITC and NMR experiments, plasmids with appropriate modified Ub‐leaders in pET vectors were used 39. Gene, encoding PLEKHM1‐LIR peptide, was ordered as synthetic oligonucleotides (Eurofins Genomics GmbH) and cloned into the pET39_Ub63_ vector 39 by NcoI–BamHI restriction sites. After TEV cleavage, the resulting peptide has the amino acid sequence GAMG‐P^629[…]^642, where the first four residues (GAMG) are the cloning artefact.
(§2) The chimeric constructs were expressed as a His‐tag fusion protein in E. coli BL21(DE3) cells. The cells were induced with 0.3 mM IPTG at OD600 0.6 for 16 h at 26°C. The cell pellets were lysed using mechanical sonication in lysis buffer (20 mM Tris–HCl pH 9.0, 100 mM NaCl, 10 mM imidazole, supplemented with 0.1% Triton X‐100). The proteins were purified using Ni‐NTA beads (GE Healthcare) and the His‐tag was cleaved using thrombin (Invitrogen) at room temperature for 16 h. The last step was gel filtration chromatography using a Superdex S200/300 GL column (GE Healthcare). The proteins were concentrated using spin concentrators (Vivaspin). For ITC and NMR studies, the non‐labelled and stable isotopes labelled LC3 and GABARAP proteins were obtained based on the protocols described elsewhere 30, 39. Here, E. coli NEB T7 Express culture transformed with corresponding plasmids were grown till OD600 nm = 1.0 and protein expression was induced with 0.2 mM IPTG. The cultures were incubated at 25°C for 8–12 h before cell harvesting. Isolation and purification procedures were similar to those reported in Ref. 22, 40. Before experiments, all proteins and peptides were equilibrated with a buffer containing 50 mM Na2HPO4, 100 mM NaCl at pH 7.0, and supplied with 5 mM protease inhibitor cocktail.
(§3) The protocol for preparation of non‐labelled and ^13C,^15N‐labelled PLEKHM1‐LIR peptide was slightly modified to achieve highest yield of the peptide. The 50 ml M9 culture was inoculated with NEB T7 cell transformed with pET39_Ub63‐PLEKHM1‐LIR plasmid and grown overnight at 37°. The collected cells were resuspended in 2 l of either LB or M9 media contained 1.5 g ^15N‐labelled NH4Cl and 3.0 g of ^13C‐labelled glucose. The cultures were grown at 37° till A(600 nm) = 0.9 and supplied with 1 mM of IPTG to induce Ub63‐PLEKHM1‐LIR overexpression (3 h at 37°). After that cells were harvested by centrifugation, re‐suspended in buffer contained 50 mM Tris–HCl pH = 7.9, 200 mM NaCl, 5% glycerol, 0.1 mg/ml DNase A and 4 mM protease inhibitor cocktail. After cell lysis by French press, debris was removed by centrifugation and clear supernatant was applied onto the column contained Ni‐NTA Sepharose equilibrated with the loading buffer (50 mM Tris–HCl pH = 7.9, 250 mM NaCl, 1% glycerol and 20 mM imidazole). Elution was performed with 400 mM imidazole in the same buffer. An aliquot of pure Ub63‐PLEKHM1‐LIR fractions was further purified by gel filtration on Superdex75 26 × 60 column for control ITC and analytical size exclusion chromatography experiments, remaining fusion protein was processed with the TEV‐protease and PLEKHM1‐LIR peptide was purified to 95% purity by reverse Ni‐NTA chromatography and followed gel filtration on Superdex75 26 × 60 column. Peak maximum of peptide was detected at […] (void volume 115 ml). Pure peptide was concentrated in Amicon concentrators with cut‐off of 3 kDa (> 95% retention). […]

LC3B = target: T2, LC3B (Homo sapiens, UniProt Q9GZQ8); assay: ITC titration of PLEKHM1-LIR peptides into LC3B; assay type: binding; conditions: for ΔH: VP-ITC, 50 mM Na2HPO4, 100 mM NaCl
T2 construct: modified Ub-leader (ubiquitin fusion leader) (N); made in house; host or cells: E. coli NEB T7 Express
Procedure: as §1, §2, §3

6xHis-tagged LC3B = assay: Peptide array (ELISA), LC3B; conditions: mean ± SEM n = 5, Fig 4B
[2] = weak interaction: N fixed to 1 upon fitting
[3] = ITC, 25°C, one-site model, 0.4 mM peptide into 0.020 mM protein, pH 7.0

T1 sequence (O95166 whole entry, the tested form may be a part): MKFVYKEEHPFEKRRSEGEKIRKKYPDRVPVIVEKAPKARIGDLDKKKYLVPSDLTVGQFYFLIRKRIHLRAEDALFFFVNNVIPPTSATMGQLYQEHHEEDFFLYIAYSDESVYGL

Sequence	preference GABARAP versus LC3B [1]	ΔH (GABARAP; ITC, 25°C, pH 7.0)	ΔG (GABARAP; ITC, 25°C, pH 7.0)	ΔS (GABARAP; ITC, 25°C, pH 7.0)	−T × ΔS (GABARAP; ITC, 25°C, pH 7.0)	ΔH (LC3B; [3])	ΔG (LC3B; ITC, 25°C, pH 7.0)	ΔS (LC3B; ITC, 25°C, pH 7.0)	−T × ΔS (LC3B; ITC, 25°C, pH 7.0)	other results
DAVFDIITD [FYCO1, LIR peptide 1277–1285; in b48 the protein]										subfamily specificity (LC3 and GABARAP families): LC3A‐specific adaptor
DDFWVRVAP [KTBD6, LIR peptide 665–673]										preference GABARAP versus LC3B ([1]; listed as KBTBD6): strong preference for GABARAP versus LC3B; preference GABARAP versus LC3B ([1]; listed as KBTDB6): clear specificity towards GABARAP versus LC3B
TDDFVLVPH [ULK2, LIR peptide 350–358]	clear specificity towards GABARAP versus LC3B									
GAMGPQQEDEAVNVQYPD [PLEKHM1‐LIR W635A]		-1.1 ± 0.1 kcal/mol	-5.40 kcal/mol	+14.4 cal mol^−1 K^−1	-4.29 kcal/mol	-0.8 ± 0.1 kcal/mol	-5.44 kcal/mol	+15.4 cal mol^−1 K^−1	-4.59 kcal/mol	N (number of binding sites) (GABARAP; [2]): 1 ^a; N (number of binding sites) (LC3B; [2]): 1 ^a
EDEWCILQY [WCIL]										Kd (LC3B; ITC, 25°C, pH 7.0, 0.4 mM peptide into 0.020 mM protein, one-site model): 300 nM
GAMGPQQEDEWCILQYPD [PLEKHM1‐LIR VNV‐CIL]		-9.2 ± 0.1 kcal/mol	-9.62 kcal/mol	+1.49 cal mol^−1 K^−1	-0.44 kcal/mol	-7.9 ± 0.1 kcal/mol	-8.84 kcal/mol	+3.30 cal mol^−1 K^−1	-0.98 kcal/mol	KA (GABARAP; ITC, 25°C, pH 7.0): 11.3 ± 0.38 ×10^6 M^−1; N (number of binding sites) (GABARAP; ITC, 25°C, pH 7.0): 1.07 ± 0.01; KA (LC3B; ITC, 25°C, pH 7.0): 3.03 ± 0.27 ×10^6 M^−1; N (number of binding sites) (LC3B; ITC, 25°C, pH 7.0): 1.06 ± 0.01
GAMGPQQEDEWVGVQYPD [PLEKHM1‐LIR N637G]		-6.7 ± 0.1 kcal/mol	-6.97 kcal/mol	+1.07 cal mol^−1 K^−1	-0.32 kcal/mol	-1.4 ± 0.1 kcal/mol	-5.87 kcal/mol	+15.0 cal mol^−1 K^−1	-4.47 kcal/mol	KA (GABARAP; ITC, 25°C, pH 7.0): 0.13 ± 0.01 ×10^6 M^−1; N (number of binding sites) (GABARAP; ITC, 25°C, pH 7.0): 1.17 ± 0.04; KA (LC3B; ITC, 25°C, pH 7.0): 0.02 ± 0.01 ×10^6 M^−1; N (number of binding sites) (LC3B; [2]): 1 ^a
EDEWCVLQY										interaction with LC3B, core motif combinations (6xHis-tagged LC3B): increased the interaction of PLEKHM1‐LIR with LC3B
DDSYEVLDL [FUNDC1, LIR peptide 152–160 (so in the source)]	preferentially interacted with the LC3 group; also recorded: only LC3‐selective LIR; also recorded: only LC3B‐specific LIR									
TDDFVMVPA [ULK1, LIR peptide 354–362]	clear specificity towards GABARAP versus LC3B									
EDEWCFLQY										interaction with LC3B, core motif combinations (6xHis-tagged LC3B): increased the interaction of PLEKHM1‐LIR with LC3B
ESDWVAVRP [JMY, LIR peptide 10–18]	strong preference for GABARAP versus LC3B									
GAMGPQQEDEWGNVQYPD [PLEKHM1‐LIR V636G]		-7.5 ± 0.1 kcal/mol	-5.83 kcal/mol	−5.66 cal mol^−1 K^−1	+1.69 kcal mol^−1	-1.7 ± 0.1 kcal/mol	-5.42 kcal/mol	+12.4 cal mol^−1 K^−1	-3.70 kcal/mol	KA (GABARAP; ITC, 25°C, pH 7.0): 0.02 ± 0.00 ×10^6 M^−1; N (number of binding sites) (GABARAP; [2]): 1 ^a; N (number of binding sites) (LC3B; [2]): 1 ^a
